In patent US12583859B2, “PRMT5 inhibitors and uses thereof” (California Institute of Technology, priority 2019, dated 2026):

Key:
PRMT5 = target: T1, PRMT5 (Homo sapiens, UniProt O14744); experiment: PRMT5 Enzymatic Inhibition Assay (chemiluminescence immunoassay of histone H4 methylation); assay type: biochemical; settings: 1 hour at room temperature; 10 μM to 1 nM
T1 construct: purchased BPS Biosciences 52002L
Description: A chemiluminescence immunoassay (CLIA) measuring the amount of PRMT5-mediated histone methylation was performed in a 96-well plate format according to the manufacturer's protocol (BPS Biosciences, Cat #52002L). A 96-well plate precoated with histone H4 peptide was rehydrated prior to use. A master mix containing PRMT5 substrate S-adenosylmethionine, reaction buffer, and purified PRMT5 enzyme was added to create reaction-competent wells. Wells lacking either S-adenosylmethionine substrate or PRMT5 enzyme were created as negative controls. 10 test concentrations, ranging from 100 μM to 10 nM, of the test compound were prepared using a 1:3 serial dilution in dH2O. 5 μL of each test concentration was added into a reaction-competent well. 5 μL of a 1% DMSO aqueous solution lacking inhibitor was added into negative control wells and into a reaction-competent well, creating a positive control well. The final reaction volume in each well was 50 μL, and the final concentration of the test compound in each well ranged from 10 μM to 1 nM. A known inhibitor of PRMT5, EPZ015666, was tested in parallel reaction wells as an assay validation control. The 96-well plate was incubated for 1 hour at room temperature.
Upon completion of the incubation, the reaction supernatant in each well was discarded. Wells were washed with 1×TBST and incubated in blocking buffer for 1 hour. The wells were incubated with a primary antibody recognizing methylated Arg3 residues on Histone H4 for 1 hour. The wells were washed with 1×TBST again and subsequently incubated with an HRP-conjugated secondary antibody for 30 minutes. The wells were washed again with 1×TBST, and equal parts of the chemiluminescence reagents were added into each well. Quantification of luminescence was measured in a plate reader.
Luminescence values were normalized against the positive and negative controls to convert the data into % PRMT5 activity. An inhibitor concentration-dependent curve was plotted against % PRMT5 activity and am IC50 value was determined for each compound.

[1] = test system: drug-sensitive cell lines of Table 4; experiment: Cell Line Growth Retardation Assay, average maximum effect in sensitive cohort; assay type: cell-based, Human; settings: average maximum growth inhibition over sensitive cohort of Table 4; 6 days; up to 1 μM
Description: (§1) Cells were seeded at densities of 1,000-5,000 cells per well in 48-well tissue culture plates. After a 24 h rest period, cells were treated with compound at 1 μM, 0.2 μM, 0.04 μM, 0.008 μM, 0.0016 μM, and 0.00032 μM. A group of cells were treated with the vehicle in which the compound was prepared and served as a control. Prior to treatment, cells were counted and this count was used as a baseline for the calculation of growth inhibition. The cells were grown in the presence of compounds for 6 days and were counted on day 6. All cell counting was performed using a Synentec Cellavista plate imager. Growth inhibition was calculated as a ratio of cell population doublings in the presence of compound versus the absence of compound and expressed as the maximum percentage growth inhibition achieved across the range of tested concentrations of the compound (“maximum effect” or “ME”) calculated by fitting curves to data points from each dose-response assay using the Proc NLIN function in SAS for Windows version 9.2 (SAS Institute, Inc.).
(§2) Human cancer cell lines were grouped as “sensitive” or “resistant” to PRMT5 inhibition based on whether their growth was retarded by JNJ-64619178 (i.e., (1S,2R,3R,5R)-3-(2-(2-amino-3-bromoquinolin-7-yl)ethyl)-5-(4-amino-7H-pyrrolo[2,3-d]pyrimidin-7-yl)cyclopentane-1,2-diol) (data not shown; see Table 4). These sensitive and resistant cohorts were interrogated for response to each compound, and ME was calculated for each cell line using the same technique described above. Average MEs for the sensitive and resistant cohorts were calculated as arithmetic means of the group. “A” represents a percent of maximum effect of 60% or greater, “B” represents a percent of maximum effect of 30% to 59%, and “C” represents a percent of maximum effect of 29% or lower.

[2] = test system: drug-resistant cell lines of Table 4; experiment: Cell Line Growth Retardation Assay, average maximum effect in resistant cohort; assay type: cell-based, Human; settings: average maximum growth inhibition over resistant cohort of Table 4; 6 days; up to 1 μM
Description: as §1, §2

[3] = Caco-2 Assay (Papp A to B); assay type: in vitro ADME; settings: human, pH 7.4
Description: The degree of bi-directional human intestinal permeability for compounds was estimated using a Caco-2 cell permeability assay. Caco-2 cells were seeded onto polyethylene membranes in 96-well plates. The growth medium was refreshed every 4 to 5 days until cells formed a confluent cell monolayer. HBSS with 10 mM HEPES at pH 7.4 was used as the transport buffer. Compounds were tested at 2 μM bi-directionally in duplicate. Digoxin, nadolol and metoprolol were included as standards. Digoxin was tested at 10 μM bi-directionally in duplicate, while nadolol and metoprolol were tested at 2 μM in the A to B direction in duplicate. The final DMSO concentration was adjusted to less than 1% for all experiments. The plate was incubated for 2 hours in a CO2 incubator at 37° C., with 5% CO2 at saturated humidity. After incubation, all wells were mixed with acetonitrile containing an internal standard, and the plate was centrifuged at 4,000 rpm for 10 minutes. 100 μL supernatant was collected from each well and diluted with 100 μL distilled water for LC/MS/MS analysis. Concentrations of test and control compounds in starting solution, donor solution, and receiver solution were quantified by LC/MS/MS, using peak area ratio of analyte/internal standard.
The apparent permeability coefficient Papp (cm/s) was calculated using the equation: Papp=(dCr/dt)×Vr/(A×C0), where dCr/dt is the cumulative concentration of compound in the receiver chamber as a function of time (μM/s); Vr is the solution volume in the receiver chamber (0.075 mL on the apical side, 0.25 mL on the basolateral side); A is the surface area for the transport, which is 0.0804 cm^2 for the area of the monolayer; and Co is the initial concentration in the donor chamber (μM). “A” represents a score of 1 or greater, “B” represents a score of 0.2 to 0.99, and “C” represents a score of less than 0.2.
The efflux ratio was calculated using the equation: Efflux Ratio=Papp(BA)/Papp(AB)
Percent recovery was calculated using the equation: % Recovery=100×[(Vr×Cr)+(Vd×Cd)]/(Vd×C0), where Vd is the volume in the donor chambers, which are 0.075 mL on the apical side and 0.25 mL on the basolateral side; and Cd and Cr are the final concentrations of transport compound in donor and receiver chambers, respectively. Measurement of Compound Metabolic Stability

[4] = Measurement of Compound Metabolic Stability in hepatocytes; assay type: in vitro ADME; settings: mouse hepatocytes; for hepatocyte CLint at 1 μM: read-out: CLint (μL/min/10^6)
Description: The metabolic stability of compounds was determined in hepatocytes from human, mice and rats. Compounds were diluted to 5 μM in Williams' Medium E from 10 mM stock solutions. 10 μL of each compound was aliquoted into a well of a 96-well plate and reactions were started by aliquoting 40 μL of a 625,000 cells/mL suspension into each well. The plate was incubated at 37° C. with 5% CO2. At each corresponding time point, the reaction was stopped by quenching with ACN containing internal standards (IS) at a 1:3. Plates were shaken at 500 rpm for 10 min, and then centrifuged at 3,220×g for 20 minutes. Supernatants were transferred to another 96-well plate containing a dilution solution. Supernatants were analyzed by LC/MS/MS. The Half-lives (in minutes) and CLint values (in μL/min/10^6 cells) of example compounds, as measured in mouse hepatocytes, are presented in Table 3. […] For CLint, “A” represents greater than 100 μL/min/10^6 cells, “B” represents 50 to 100 μL/min/10^6 cells, and “C” represents less than 50 μL/min/10^6 cells.
The remaining percent of compound after incubation was calculated using the following equation: % Remaining Compound=Peak Area Ratios of Tested Compound vs. Internal Standard at End Point • Peak Area Ratios of Tested Compound vs. Internal Standard at Start Point Compound half-life and CLint were calculated using the following equations: Ct=C0*e^−k*t(first order kinetics); when […], t1/2=ln 2/k=0.693/k; and CLint=k/(1,000,000 cells/mL) Activity-Guided Selection of Inhibitors

[5] = Water solubility of mesylate salt; assay type: physicochemical; settings: in water
Description: The freebase of Compound 15 was suspended in water, and methansulfonic acid was added (32 mg in 2 mL water). The resulting solution was gently heated and sonicated until a homogenous solution resulted, which was frozen and concentrated to dryness on the lyophilzer. The oily solid that resulted was re-dissolved in water, frozen and concentrated in the same manner to give a water soluble white solid (˜3 mg/mL). Further experiments were more easily conducted with this salt (32.0 mg, 91% yield over 2 steps).

T1 sequence (O14744 2-637 limits assumed): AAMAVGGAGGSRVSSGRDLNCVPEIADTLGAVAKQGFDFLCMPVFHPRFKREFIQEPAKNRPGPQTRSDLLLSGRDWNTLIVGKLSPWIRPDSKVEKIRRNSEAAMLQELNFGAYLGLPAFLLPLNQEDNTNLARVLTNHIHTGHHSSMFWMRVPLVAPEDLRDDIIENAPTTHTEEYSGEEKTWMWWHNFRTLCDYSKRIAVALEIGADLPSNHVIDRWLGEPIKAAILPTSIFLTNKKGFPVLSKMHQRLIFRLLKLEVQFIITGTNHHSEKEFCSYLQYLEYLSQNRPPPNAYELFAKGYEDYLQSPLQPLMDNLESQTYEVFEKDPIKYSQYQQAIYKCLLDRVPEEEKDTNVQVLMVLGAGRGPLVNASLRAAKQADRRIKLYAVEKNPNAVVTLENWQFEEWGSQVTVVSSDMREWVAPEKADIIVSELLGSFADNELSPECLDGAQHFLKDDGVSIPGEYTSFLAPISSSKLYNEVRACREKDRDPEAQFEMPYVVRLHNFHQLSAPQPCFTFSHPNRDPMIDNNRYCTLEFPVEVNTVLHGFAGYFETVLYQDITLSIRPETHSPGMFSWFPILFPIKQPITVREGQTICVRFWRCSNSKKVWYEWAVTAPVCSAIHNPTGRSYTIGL
T1 sequence (Q9BQA1 2-342 partner limits assumed): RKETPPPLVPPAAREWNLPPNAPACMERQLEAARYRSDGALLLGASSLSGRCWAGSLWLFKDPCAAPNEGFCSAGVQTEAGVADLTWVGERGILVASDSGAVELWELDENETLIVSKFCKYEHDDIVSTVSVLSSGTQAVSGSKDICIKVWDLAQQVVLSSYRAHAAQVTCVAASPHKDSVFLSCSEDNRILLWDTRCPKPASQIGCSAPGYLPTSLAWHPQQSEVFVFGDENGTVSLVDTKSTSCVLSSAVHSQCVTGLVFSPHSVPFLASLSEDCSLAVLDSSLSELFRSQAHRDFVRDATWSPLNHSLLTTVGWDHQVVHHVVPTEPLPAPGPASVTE

IC50 (PRMT5) | Papp A→B at 2 h, 2 μM [3] | half-life at 1 μM [4] | hepatocyte CLint at 1 μM [4] | solubility [5] | SMILES | AvgSens ME (%) [1] | AvgRes ME (%) [2]
≤ 100 nM | < 0.2 ×10⁻⁶ cm/s | > 50 min | < 50 µL/min/1e6 cells | ~3000 µg/mL | Nc1nc2cc(C3C[C@@]4(CO3)C[C@@H](n3ccc5c(N)ncnc53)[C@H](O)[C@@H]4O)ccc2cc1Br (single isomer, unassigned) [Compound 15] | A (a percent of maximum effect of 60% or greater) | B (a percent of maximum effect of 30% to 59%)
≤ 100 nM | < 0.2 ×10⁻⁶ cm/s |  |  |  | Nc1nc2cc(C3C[C@@]4(CN3)C[C@@H](n3ccc5c(Cl)ncnc53)[C@H](O)[C@@H]4O)ccc2cc1Br (single isomer, unassigned) [Compound 9] | B (a percent of maximum effect of 30% to 59%) | C (a percent of maximum effect of 29% or lower)
≤ 100 nM | 0.2 to 0.99 ×10⁻⁶ cm/s | 15 to 50 min | 50 to 100 µL/min/1e6 cells |  | Nc1nc2cc(C3C[C@@]4(CO3)C[C@@H](n3ccc5c(Cl)ncnc53)[C@H](O)[C@@H]4O)ccc2cc1Br (stereo partly drawn) [Compound 17] | A (a percent of maximum effect of 60% or greater) | B (a percent of maximum effect of 30% to 59%)
≤ 100 nM | ≥ 1 ×10⁻⁶ cm/s | 15 to 50 min | 50 to 100 µL/min/1e6 cells |  | CCNc1ncnc2c1ccn2[C@@H]1C[C@@]2(CO[C@@H](c3ccc4cc(Br)c(N)nc4c3)C2)[C@@H](O)[C@H]1O [Compound 24] | A (a percent of maximum effect of 60% or greater) | B (a percent of maximum effect of 30% to 59%)
≤ 100 nM | ≥ 1 ×10⁻⁶ cm/s | > 50 min | < 50 µL/min/1e6 cells |  | Cc1ncnc2c1ccn2[C@@H]1C[C@@]2(CO[C@@H](c3ccc4cc(Br)c(N)nc4c3)C2)[C@@H](O)[C@H]1O [Compound 19] | A (a percent of maximum effect of 60% or greater) | B (a percent of maximum effect of 30% to 59%)
≤ 100 nM | ≥ 1 ×10⁻⁶ cm/s | < 15 min | > 100 µL/min/1e6 cells |  | Nc1nc2cc([C@H]3C[C@@]4(CO3)C[C@@H](n3ccc5cncnc53)[C@H](O)[C@@H]4O)ccc2cc1Br [Compound 22] | A (a percent of maximum effect of 60% or greater) | B (a percent of maximum effect of 30% to 59%)
101 to 500 nM | < 0.2 ×10⁻⁶ cm/s |  |  |  | Nc1nc2cc(C3C[C@@]4(CN3)C[C@@H](n3ccc5c(N)ncnc53)[C@H](O)[C@@H]4O)ccc2cc1Br (single isomer, unassigned) [Compound 8] | C (a percent of maximum effect of 29% or lower) | C (a percent of maximum effect of 29% or lower)
≤ 100 nM | 0.2 to 0.99 ×10⁻⁶ cm/s | > 50 min | < 50 µL/min/1e6 cells |  | CNc1ncnc2c1ccn2[C@@H]1C[C@@]2(CO[C@@H](c3ccc4cc(Br)c(N)nc4c3)C2)[C@@H](O)[C@H]1O [Compound 23] | A (a percent of maximum effect of 60% or greater) | B (a percent of maximum effect of 30% to 59%)
